“Also recorded” adds a separate entry of the source. Read-outs that look alike come from different tables or passages of the source.
Assays:
γ-secretase [1] = biological target: T1, γ-secretase (Homo sapiens, UniProt P49768); conditions: read-out: Cell-free; cited from earlier work
γ-secretase active site = γ-secretase active site (Homo sapiens, UniProt P49768); conditions: cited from earlier work
γ-secretase [2] = biological target: T1, γ-secretase; conditions: read-out: In cells; cited from earlier work
gamma-secretase = gamma-secretase (Homo sapiens, UniProt P49768); conditions: recombinant APP C100 substrate; cited from earlier work
[3] = test system: dorsal root ganglion (DRG) neurons and oligodendrocytes; test: Myelination of dorsal root ganglion neurons by oligodendrocytes; assay type: cell-based
[4] = test system: Notch1f/f OPCs on RGC reaggregates; test: Myelination by floxxed Notch1 OPCs (AdCre/AdEmpty) cocultured with RGC reaggregates; assay type: cell-based, mouse; conditions: 1 μM DAPT, six days of coculture, with or without glial Notch1
Protocol: FIG. 5. […] (A-C) Infection of OPCs from floxxed Notch1 mice (Notch1^f/f) with a recombinant adenovirus for expression of Cre recombinase (AdCre) results in rapid reduction of Notch1 protein. Notch1^f/f-OPCs, purified by immunopanning with anti-PDGFRα, were cultured for 2 days prior to infection for 24 hours with AdCre or a control virus (AdEmpty) at a multiplicity of infection of 10. The next day, cells were re-plated on RGC reaggregate cultures and on coverslips for analysis of Notch1 knockout, which was assessed by immunostaining (a,b) and Western blot analysis 24 hours later (c).
Conditional knockout cells and infection with AdCre. OPCs were purified from P9 Notch1 conditional knockout (gift of A. Rosenthal, Genentech) and presenilin double conditional knockout (gift of Jie Shen, Brigham and Women's hospital) mouse brains by a slight modification of the panning protocol for rat cells as described previously. The first panning dish was coated with mouse anti-mouse Thy1.2 (Serotec) rather than Ran-2. Mouse OPCs were plated on PDL-coated flasks in defined proliferation medium (DMEM supplemented with B27, insulin, 10 ng/ml PDGF, 1 ng/ml NT3, 10 ng/ml CNTF, and forskolin) for 2 days and then passaged onto PDL-coated tissue culture plates at a density of 1 million cells per plate. […]

PS-1 = PS-1 (Homo sapiens, UniProt P49768); conditions: cited from earlier work
[5] = test system: oligodendrocytes in OPC-RGC reaggregate cocultures; test: OPC-RGC reaggregate coculture myelination (MBP/NG2 immunostaining); assay type: cell-based, rat
Protocol: Purification of RGCs. Retinal ganglion cells (RGCs) were purified to >99.5% homogeneity from two- to three-litters of 5-day-old (P5) rat retinae by immunopanning as previously described. Briefly, retinae were digested with papain at 37° C. Following gentle trituration, cells were resuspended in a panning buffer containing insulin (5 μg/ml) and then incubated at room temperature with rabbit anti-macrophage antibodies. Retinal cells were incubated at room temperature sequentially on three immunopanning dishes: two coated with anti-rabbit secondary antibodies (to negatively select macrophages) and the third with T11D7 anti-Thy1 mAb. RGCs were released from the final panning dish with trypsin (Sigma).
To produce reaggregates, RGCs were plated at high density (>1,000 cells/μl) in 400 μl RGC growth medium in wells an 8-well chamber-slide (Nunc) coated with a surface that is not strongly adherent for RGCs (Permanox). One- to three-hours after plating, RGCs were resuspended gently to promote interaction and reaggregation, and this was repeated the following day. Following two days of culture at high density, reaggregates were collected and allowed to settle to separate them from dead RGCs, non-aggregated cells, and small reaggregates (<10 cells). […]

PS-2 = PS-2 (Homo sapiens, UniProt P49810); conditions: cited from earlier work

Question: With `C[C@@H](NC(=O)Cc1cc(F)cc(F)c1)C(=O)N[C@H]1N=C(c2ccccc2)c2ccccc2N(C)C1=O` [Compound E] as the compound, how does the IC50 (γ-secretase [1]) read?
Answer: The IC50 was 0.003 µM.

Question: What about the Displacement (γ-secretase active site) of the same compound?
Answer: Its Displacement is “YES”.

Question: What about the IC50 (γ-secretase [2]) of the same compound?
Answer: Its IC50 is 0.0003 µM.

Question: Which results are given for “Boc-D-Val-Gly-Aib-D-Val-D-Val-D-He-Aib-D-Thr(OBn)-D-Val-Aib-OMe [D-Helical peptide 294]”?
Answer: IC50 (γ-secretase [1]): 0.1 µM; IC50 (γ-secretase [2]): 3 µM

Question: For `CSc1ccc(/C=C2/C(C)=C(CC(=O)O)c3cc(F)ccc32)cc1` [Sulindac sulfide], which “inhibition of gamma(42)-secretase activity” value (gamma-secretase) is on record?
Answer: The value was “preferentially inhibits”.

Question: With (Z-LL)2-ketone as the compound, how does the IC50 (γ-secretase [1]) read?
Answer: The IC50 was 30 µM.

Question: What about the Displacement (γ-secretase active site) of the same compound?
Answer: Its Displacement is “YES”.

Question: What about the IC50 (γ-secretase [2]) of the same compound?
Answer: Its IC50 is greater than 100 µM.

Question: Which “myelination of DRG neurons by oligodendrocytes” value [3] does the source give for `C[C@H](NC(=O)Cc1cc(F)cc(F)c1)C(=O)N[C@H](C(=O)OC(C)(C)C)c1ccccc1` [DAPT] here?
Answer: Its value is “profoundly enhanced myelination”.

Question: What about the IC50 (γ-secretase [1]) of the same compound?
Answer: The IC50 was 0.01 µM.

Question: What about the Displacement (γ-secretase active site) of the same compound?
Answer: Its Displacement is “YES”.

Question: What about the “competition for the γ-secretase active site in a displacement assay” value (γ-secretase active site) of the same compound?
Answer: The value was “can compete moderately”.

Question: What about the “myelination (proportion of cells that myelinate)” value [4] of the same compound?
Answer: The value was “enhances myelination either in the presence (AdEmpty) or absence (AdCre) of glial Notch1”.

Question: And the IC50 (γ-secretase [2])?
Answer: Its IC50 is 0.02 µM.

Question: What about the “inhibition of PS-1” value (PS-1) of the same compound?
Answer: Its value is “inhibits”.

Question: And the “proportion of MBP+ oligodendrocytes that formed myelin segments” value ([5]; 1 μM DAPT, six-day cocultures)?
Answer: The value was “significantly increased; also recorded: the majority of oligodendrocytes myelinate”.

Question: And the “proportion of NG2+ OPCs or MBP+ oligodendrocytes” value ([5]; cocultures with DAPT)?
Answer: The value was “did not consistently alter”.

Question: What about the “inhibition of PS-2” value (PS-2) of the same compound?
Answer: Its value is “inhibits”.

Question: With `CCC(C)C(NC(=O)C(CCCCNC(=O)OC(C)(C)C)NC(=O)OC(C)(C)C)C(=O)NC(CC(C)C)C1CO1` (stereo not drawn) [Epoxide] as the compound, how does the IC50 (γ-secretase [1]) read?
Answer: The IC50 was 20 µM.

Question: And the IC50 (γ-secretase [2])?
Answer: Its IC50 is 20 µM.

Question: For `COC(=O)[C@@H](NC(=O)[C@H](CC(C)C)NC(=O)N(Cc1ccccc1)C[C@@H](O)[C@H](Cc1ccccc1)NC(=O)OC(C)(C)C)C(C)C` [III-31-C], which IC50 (γ-secretase [1]) is on record?
Answer: The IC50 was 0.01 µM.

Question: And the Displacement (γ-secretase active site)?
Answer: Its Displacement is “YES”.

Question: What about the IC50 (γ-secretase [2]) of the same compound?
Answer: Its IC50 is 0.2 µM.

— US7973011B2, “Blockade of gamma-secretase activity to promote myelination by oligodendrocytes” (The Board of Trustees of the Leland Stanford Junior …, priority 2006, dated 2011)
